Data published in US10507212B2, “Method for use of homopiperazinium compounds in the treatment of cancer” (UNIVERSITÉ LAVAL, priority 2014, dated 2019).
Structures can show the parent of a compound that is named as a salt. Where two headings read alike, the source gives them in different places. Blank lines part the entries; values can stand above or below the compound they belong to.

Legend:
[1] = system: A549 adenocarcinoma cell line; assay: Cell proliferation assay, A549 (MTT)
Procedure: (§1) In vitro experiments were conducted on four cancer cell lines: the A549 adenocarcinoma cell line, the H520 squamous cell carcinoma the H82 small cell lung carcinoma and Calu 3 lung adenocarcinoma. The A549 tumor cells, were plated at a density of 1.5×10^4 cells per mL and let to adhere on 96-well microplates in F12K cell culture medium enriched with 10% fetal calf serum (FCS). The H520, H82 and Calu 3 tumor cells were plated at a density of 5×10^4 cells per mL in RPMI+10% FCS. After 24 h in culture, the medium was changed and cells were exposed to ASM-024 at concentrations ranging from 10^−7M to 10^−3M (FIGS. 1A-1C). After 3 and 6 days in culture, cell growth was quantified using the MTT colorimetric assay (M2128, Sigma) at 575-690 nm or the Cell Titer fluorescence assay (G8080, Promega) at 560/590 nm.
(§2) In an another set of experiments, a series of 16 other homopiperazinium compounds, in addition to ASM-024, were tested for their anti-proliferative effect on the four tumor cell lines described above after up to 6 days in culture at concentrations of 10^-7M to 10^-3M. (FIGS. 4A-4E) Cell growth was quantified using the MTT colorimetric assay for the A-549, H520 and Calu 3 cell lines and the CellTiter Fluorescence assay.for the H82 tumor cell line These are established method of determining viable cell number in proliferation studies.

[2] = system: H82 small cell lung carcinoma; assay: Cell proliferation assay, H82 (CellTiter fluorescence); assay type: cell-based; conditions: for inhibition at 100 µM / inhibition at 300 µM / IC50: Homo sapiens; for inhibition at 100 µM / inhibition at 300 µM: read-out: % Inhibition of Cell Growth at day 3 compared to vehicle-treated cells
Procedure: as §1, §2

[3] = system: H520 squamous cell carcinoma; assay: Cell proliferation assay, H520 (MTT); assay type: cell-based
Procedure: as §1, §2

[4] = Homo sapiens, A549, 72 h, read-out: IC50 Day 3, A549, day 3 in culture
[5] = Homo sapiens, A549, 144 h, read-out: IC50 Day 6, A549, day 6 in culture
[6] = Homo sapiens, NCI-H520, 72 h, read-out: IC50 Day 3, H520, day 3 in culture
[7] = Homo sapiens, NCI-H520, 144 h, read-out: IC50 Day 6, H520, day 6 in culture
[8] = NCI-H82, 72 h, H82, day 3, 3 × 10^−4M
[9] = NCI-H82, 72 h, H82, day 3, 10^−4M
[10] = Homo sapiens, NCI-H520, 72 h, H520, day 3 in culture, read-out: IC50 Day 3
[11] = Homo sapiens, NCI-H520, 144 h, H520, day 6 in culture, read-out: IC50 Day 6
[12] = H520, day 3 in culture, read-out: IC50 Day 3
[13] = read-out: IC50 Day 3, A549, day 3 in culture
[14] = read-out: IC50 Day 6, A549, day 6 in culture
[15] = H520, day 6 in culture, read-out: IC50 Day 6

Compound: CC(C)[N+]1(C)[C@@H]2CC[C@H]1C[C@@H](OC(=O)C(CO)c1ccccc1)C2 (some centres unmarked) [ipratropium, reference compound]
cytotoxic effect ([1]; A549, at 1000 μM): cytotoxic effect

Compound: CC[N+]1(C)CCCN(c2ccccn2)CC1 (centres unmarked) [ASM-017, 1-Ethyl-1-methyl-4-(2-pyridyl)-homopiperazinium Iodide]
inhibition at 100 µM ([2]; NCI-H82, 72 h): -26%
inhibition at 300 µM ([2]; NCI-H82, 72 h): -6%
IC50 [1, 4]: 89 ± 13 µM
IC50 [1, 5]: 65 ± 25 µM
IC50 [3, 6]: 953 ± 39 µM
IC50 [3, 7]: 469 ± 163 µM

Compound: C[N+]1(C)CCCN(c2ccc(C(F)(F)F)cc2)CC1 [ASM-058, 1,1-Dimethyl-4-(4-trifluoromethylphenyl)-homopiperazinium Tosylate]
IC50 ([2]; NCI-H82, 72 h, read-out: IC50 Day 3): 472 µM
IC50 ([2]; NCI-H82, 144 h, read-out: IC50 Day 6): 299 µM
IC50 [1, 4]: 22 ± 10 µM
IC50 [1, 5]: 27 ± 26 µM
IC50 [3, 6]: 356 ± 143 µM
IC50 [3, 7]: 210 ± 82 µM

Compound: CC[N+]1(CC)CCCN(c2ccccc2)CC1.[Br-] [ASM-021, 1,1-Diethyl-4-phenyl-homopiperazinium Bromide]
% Inhibition of Cell Growth at day 3 compared to vehicle-treated cells ([2]; H82, day 3, 3 × 10^−4M): 59%
% Inhibition of Cell Growth at day 3 compared to vehicle-treated cells ([2]; H82, day 3, 10^−4M): 13%
IC50 [1, 4]: 45 ± 12 µM
IC50 [1, 5]: 51 ± 39 µM
IC50 [3, 12]: > 1000 µM
IC50 [3, 11]: 369 ± 171 µM

Compound: CC[N+]1(CC)CCCN(c2ccccc2)CC1.[I-] [ASM-009, 1,1-Diethyl-4-phenyl-homopiperazinium Iodide]
% Inhibition of Cell Growth at day 3 compared to vehicle-treated cells ([2]; H82, day 3, 3 × 10^−4M): 35%
% Inhibition of Cell Growth at day 3 compared to vehicle-treated cells ([2]; H82, day 3, 10^−4M): −12%
IC50 [1, 13]: 51 ± 6 µM
IC50 [1, 14]: 48 ± 25 µM
IC50 [3, 12]: 892 ± 98 µM
IC50 [3, 15]: 396 ± 147 µM

Compound: C[N+]1(C)[C@@H]2C[C@@H](OC(=O)C(O)(c3cccs3)c3cccs3)C[C@H]1[C@@H]1O[C@@H]12 [Tiotropium, reference compound]
cell proliferation / cell growth inhibition (in words) ([2]; H82, day 3 and day 6, text on figures): no significant cell growth inhibition
IC50 (in words) ([2]; H82, cell line not given): No IC50 could be calculated
cell proliferation / cell growth inhibition (in words) ([1]; A549, day 3 and day 6, text on figures): no significant cell growth inhibition
IC50 (in words) ([1]; A549, cell line not given): No IC50 could be calculated
cell proliferation / cell growth inhibition (in words) ([3]; H520, day 3 and day 6, text on figures): no significant cell growth inhibition
IC50 (in words) ([3]; H520, cell line not given): No IC50 could be calculated

Compound: CC[N+]1(CC)CCCN(c2ccccc2)CC1.[Cl-] [ASM-022, 1,1-Diethyl-4-phenyl-homopiperazinium Chloride]
% Inhibition of Cell Growth at day 3 compared to vehicle-treated cells ([2]; H82, day 3, 3 × 10^−4M): 55%
% Inhibition of Cell Growth at day 3 compared to vehicle-treated cells ([2]; H82, day 3, 10^−4M): 23%
IC50 [1, 13]: 46 ± 7 µM
IC50 [1, 14]: 45 ± 32 µM
IC50 [3, 12]: > 700 µM
IC50 [3, 15]: 387 ± 178 µM

Compound: C[N+]1(C)CCCN(c2ccc(C(F)(F)F)cc2)CC1 [ASM-071, 4-Dimethyl-1-(4-trifluorophenyl)-homopiperazinium Iodide]
IC50 [1, 13]: 25 ± 15 µM
IC50 [1, 14]: 18 ± 9 µM
IC50 ([3]; read-out: IC50 Day 3, H520, day 3 in culture): 523 ± 292 µM
IC50 ([3]; read-out: IC50 Day 6, H520, day 6 in culture): 235 ± 179 µM

Second part, led by results:

IC50 [1, 4]: 146 ± 92 µM
IC50 [1, 5]: 112 ± 96 µM
IC50 [3, 10]: > 1000 µM
IC50 [3, 11]: 634 ± 124 µM
Compound: CC[N+]1(CC)CCCN(c2ccccn2)CC1 [ASM-037, 1,1-Diethyl-4-(2-pyridyl)-homopiperazinium Tosylate]
inhibition at 300 µM [2, 8]: 29%
inhibition at 100 µM [2, 9]: 10%

IC50 [1, 4]: 90 ± 15 µM
IC50 [1, 5]: 58 ± 22 µM
IC50 [3, 10]: 415 ± 212 µM
IC50 [3, 11]: 180 ± 92 µM
Compound: C[N+]1(C)CCCN(c2ccccn2)CC1 [ASM-016, 1,1-Dimethyl-4-(2-pyridyl)-homopiperazinium Iodide]
inhibition at 300 µM [2, 8]: -6%
inhibition at 100 µM [2, 9]: -22%

IC50 [1, 4]: 60 ± 26 µM
IC50 [1, 5]: 28 ± 15 µM
IC50 [3, 10]: 622 ± 211 µM
IC50 [3, 11]: 272 ± 65 µM
Compound: CC[N+]1(C)CCCN(c2ccccc2)CC1 (centres unmarked) [ASM-055, 1-Ethyl-1-Methyl-4-(phenyl)-homopiperazinium Tosylate]
inhibition at 300 µM [2, 8]: 66%
inhibition at 100 µM [2, 9]: 36%

IC50 [1, 4]: 136 ± 39 µM
IC50 [1, 5]: 82 ± 32 µM
IC50 [3, 10]: > 1000 µM
IC50 [3, 11]: 536 ± 101 µM
Compound: CCC[N+]1(C)CCCN(c2ccccn2)CC1 (centres unmarked) [ASM-018, 1-Methyl-1-propyl-4-(2-pyridyl)-homopiperazinium Iodide]
inhibition at 300 µM [2, 8]: 35%
inhibition at 100 µM [2, 9]: 15%
